In publication PMC6720452, “Structural Basis for Recruitment of DAPK1 to the KLHL20 E3 Ligase” (Structure(London, England:1993), 2019):

Assays:
Kelch domain of KEAP1 = conditions: ref Tong et al., 2006; cited from earlier work
Text: However, this is weaker than the low nanomolar binding observed for NRF2 interaction with the Kelch domain of KEAP1 ([Tong et al., 2006]). These differences may reflect the strict regulation of NRF2, which ensures its constitutive degradation, or the requirement for substrate co-adaptors as found for KLHL12 ([McGourty et al., 2016]). Alternatively, t ...

Kelch domain of KLHL20 = target: T1, Kelch domain of KLHL20 (Homo sapiens, UniProt Q9Y2M5); assay: Surface plasmon resonance, immobilized KLHL20; conditions: SPR, BIACORE S200, CM5 chip, amine coupling, 25°C, HBS-P buffer, 30 μL/min, peptide 1.6-200 μM, one-site steady-state affinity; representative of two independent experiments; N.B., no binding detected
T1 construct: human KLHL20 (Uniprot Q9Y2M5 isoform 1, M303-E605); hexahistidine tag with TEV cleavage site (N); made in house; host or cells: E. coli BL21(DE3)R3-pRARE2
T1 sequence (Q9Y2M5 303-605): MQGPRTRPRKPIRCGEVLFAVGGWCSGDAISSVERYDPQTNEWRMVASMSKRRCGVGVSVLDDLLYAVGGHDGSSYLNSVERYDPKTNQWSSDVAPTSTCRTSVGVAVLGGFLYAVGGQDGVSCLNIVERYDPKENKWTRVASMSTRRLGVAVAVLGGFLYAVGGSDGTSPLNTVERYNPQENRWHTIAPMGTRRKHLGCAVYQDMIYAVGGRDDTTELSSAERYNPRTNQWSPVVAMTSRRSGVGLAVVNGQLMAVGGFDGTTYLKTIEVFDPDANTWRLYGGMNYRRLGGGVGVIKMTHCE
Method: (C) For SPR experiments, KLHL20 and KLHL3 Kelch domains were immobilized by amine coupling on different flow cells of a CM5 sensor chip. Indicated DAPK1 peptides were injected subsequently at concentrations of 1.6 μM, 3.1 μM, 6.2 μM, 12.5 μM, 25 μM, 50 μM, 100 μM, and 200 μM. Binding was monitored at a flow rate of 30 μL/min. […] Data were fitted using a steady-state affinity equation.
Assays were performed at 25°C using a BIACORE S200 (GE Healthcare) surface plasmon resonance (SPR) instrument. The Kelch domains of KLHL20 and KLHL3 were immobilized on sensor chip CM5 (GE Healthcare) using amine coupling. […] Binding was monitored using a flow rate of 30 μL/min. The peptide analytes were prepared in HBS-P buffer (GE Healthcare). Data reported were after reference flow cell signal subtraction. Data were analyzed by one-site steady-state affinity analysis using the Biacore S200 Evaluation software and the fitting equation Req=CRmax/KD+C+RI . (RI, bulk refractive index contribution; Rmax, maximum response; KD, dissociation constant; C, analyte concentration).

Substance | Binding affinity for KEAP1 Kelch domain (Kelch domain of KEAP1) | KD (μM), Immobilized Protein: KLHL20 (Kelch domain of KLHL20)
NRF2: NRF2, interaction with the Kelch domain of KEAP1 | low nanomolar | –
SKLRELGRRDAADFLLKA [DAPK1 peptide spanning the C-terminal site residues 1,378–1,395] | – | N.B
